In patent publication US20200129499A1, “COMBINATION OF TASQUINIMOD OR A PHARMACEUTICALLY ACCEPTABLE SALT THEREOF AND A PD-1 AND/OR PD-L1 INHIBITOR, FOR USE AS A MEDICAMENT” (ACTIVE BIOTECH AB, priority 2015, published 2020):
Entries after “also recorded” stand apart in the source; their conditions may differ.

Tests used:
MBT-2 tumors = test: Subcutaneous MBT-2 tumor model, early or established tumors (Examples 3 and 4); assay type: in vivo, mouse
Protocol: FIG. 4: Treatment with tasquinimod had no effect on established MBT-2 tumor growth and induced an alteration in the profile of PD-1/PD-L1 axis. (A) Growth curves and (B) tumor weight of MBT-2 tumors treated with tasquinimod at 30 mg/kg (oral gavage, twice daily) after randomization at day 11 post tumor-cell inoculation (n=12). Mice were sacrificed. Tumors were harvested, digested and then subjected to surface staining. (C) PD-L1 expression on myeloid cells treated with vehicle (control) or tasquinimod 30 mg/kg at day 15. (D) Quantitative data of the Median Fluorescence Intensity of PD-L1 gated on infiltrating myeloid cells CD1 1b+ (*, P<0.05; Mann-Whitney test, n=5 mice per group).
FIG. 5: 106 MBT-2 cells were injected subcutaneously in C3H/HeNRj mice. Animals were treated with Anti-PD-L1 or its isotype (IgG2B) at the dose of 200 μg by intraperitoneal injection. Treatment started at (A) day 1 (Student test; left panel: *, P=0.0223), or (B) day 11 post tumor cell inoculation. […]
MBT-2 cells (1×106) were injected subcutaneously into the flanks of mice and resulting tumors were allowed to grow for 21 days. Tumors were measured by caliper and tumor volume (mm3) was calculated using the formula=(Width) 2×Length 12. […]

CD8+ T cells = test: Ex vivo T cell proliferation assay with tumor-derived CD11b+ cells; assay type: cell-based, mouse; details: CD11b+ from treated established tumors co-cultured 1:1 with T cells, 72 h; FIGS. 8A and B
Text: FIG. 7: Combination of tasquinimod with Anti-PD-L1 increases cytotoxic T cell activity. (A) Quantitative data of the percentage of tumor-infiltrating CD8+ cells on day 15 after treatment (n=6). (B) Left panel: Representative images showing immunostaining for granzyme B (brown staining) in tumors from control or treated groups. Original magnification: X200, inset: tumor overview. Scale bar: 5θ μm. Right panel: Quantification of granzyme B positive cells on tumor sections expressed as a percentage of total cells using an antibody against granzyme B (Kruskal-Wallis test; *, P=0.0326). (C) The concentration levels (pg/ml) of the following cytokines: IL-1β, IL-7, IL-1 2(p70) and IL-15 in tumor lysate from each group were quantified using Luminex Technology (n=5). (D) Splenocytes (n=5) from each group were stimulated with PMA/ionomycin in the presence of Brefeldin A. IL-2, TNF-a and IFN-γ production was examined by intracellular staining. […] Asterisks denote statistical significance using one-way ANOVA (*, P<0.05; **, P<0.005). […] P values were calculated based on Kruskal-Wallis test between the different groups (*, P<0.05; **, P<0.005). […] (A) Representative histograms obtained by FACS analysis showing the fluorescence intensity of CFSE-T cells gated on CD8+. […] (C) IFN-γ secretion in the supernatant of the co-culture is measured 72 hours following incubation at 37° C. using Luminex Technology. […]

[1] = tested on: human prostate, breast, bladder and colon tumor xenografts; details: pre-clinical models, Isaacs et al. 2013; cited from earlier work

COc1cccc2c1c(O)c(C(=O)N(C)c1ccc(C(F)(F)F)cc1)c(=O)n2C [tasquinimod, 4-hydroxy-5-methoxy-N,1-dimethyl-2-oxo-N-[4-(trifluoromethyl)phenyl]-1,2-dihydroquinoline-3-carboxamide]
tumor growth (tumor volume, mean±SEM) (MBT-2 tumors; established tumors, treatment from day 8, FIG. 6B): 343±67 mm3 | tumor growth of established MBT-2 tumors (MBT-2 tumors; treatment started at tumor volume 50-100 mm3, tasquinimod 30 mg/kg twice daily, Anti-PD-L1 200 μg i.p.): no effect; also recorded: lost its ability to inhibit tumor growth | proliferation of stimulated CD8+ T cells ex vivo (CD8+ T cells): limited ability | efficacy as monotherapeutic agent against tumor xenografts [1]: effective as a monotherapeutic agent
